Marks after values point to notes of the source that are not given here.
Tests used:
[1] = system: RSV; assay: RSV plaque reduction by small molecule peptide inhibitors on Vero cells (Example II); type: cell-based, RSV/A2; conditions: peptide added to heparin 5 μg/ml; in words
Experimental: Vero cells were treated with PBS, RT33, RT34, Δ+1, Δ−1 and EYp1 peptides (100 μm) in the presence (B) or absence of heparin (A) (5 μg/ml). Percentage inhibition was determined by dividing the mean plaque forming units (PFU) of treated Vero cells by the mean PFU of PBS-treated Vero cells.
Different concentrations of the G glycoprotein peptides and/or 5 μg/ml heparin (Sigma) were diluted in Dulbecco's phosphate buffered saline (D-PBS; GIBCO) and added to Vero cell monolayers for 1 h at 37° C. Pre-treated Vero cells were infected with 10^6 PFU of RSV/A2 diluted in serum-free DMEM (GIBCO) for 2 h at 37° C., after which DMEM (GIBCO) containing 10% FBS (Hyclone, Logan, Utah) was added, and the infected cells incubated at 37° C. for 3-4 days. Plaques were enumerated by immunostaining with monoclonal antibodies against the G and F glycoproteins (130-2G and 131-2A, respectively), as described (54,55).

[2] = system: CD3+ BAL cells; assay: Intracellular cytokine expression by CD3+ T cells following in vivo peptide treatment; set-up: species or system BALB/c mice
Experimental: (§1) On day −1, prior to RSV infection, mice were i.p. treated (0.1 ml/mouse) with 100 μM of G glycoprotein peptides RT33 (CWAIC) (SEQ ID NO: 12), RT34 (lacks the CX3C motif) or peptides with changes in the CX3C motif (Δ+1, Δ−1, EYp1). Control mice were treated with PBS containing a similar dilution of DMSO used to solubilize the peptides.
Intracellular cytokine staining was modified for microculture staining as described (55, 57). Briefly, BAL cells were incubated in PBS containing Golgi Stop (Pharmingen) for 3 h at 37° C. to allow for accumulation of intracellular cytokines. The cells were washed in PBS containing 1% bovine serum albumin, blocked with 10% normal mouse sera diluted in PBS containing 1% bovine serum albumin, and stained (4° C., 30 min) with an appropriate dilution of anti-CD3 antibody, fixed and permeabilized in Cytofix/Cytoperm (Pharmingen). The cells were washed in Cytofix/Cytoperm buffer and stained (4° C., 30 min) with appropriate dilutions of anti-IL-2 (JES6-5H4), anti-IL-4 (BVD4-1D11), anti-IL-5 (TRFK5), IL-10 (JES3-16E3), anti-IFNγ (XMG1.2), or anti-TNFα (MP6-XT22) antibodies (Pharmingen) diluted in Cytofix/Cytoperm. Extra- and intracellular staining was analyzed by flow cytometry using a FACScan and Cell Quest software (Becton Dickinson, San Diego, Calif.). Total cytokine expression by CD3+ T cells was determined from the percent cytokine expression of CD3+ T cells and total number of cells recovered. The total number of CD3+ BAL cells expressing a particular cytokine was determined by multiplying the total number of BAL cells by the percent CD3+ cells expressing that particular cytokine.

[3] = system: bronchoalveolar leukocytes (BAL); assay: BAL cell infiltration and cell types in RSV-infected mice following in vivo peptide treatment; set-up: species or system BALB/c mice; conditions: in words; for total BAL numbers compared to mice treated with RT34, Δ−1 or PBS: day 3 pi; for course of BAL numbers: from day 3 to day 14 pi
Text: Total pulmonary leukocyte trafficking following treatment of mice with peptides containing a CX3C motif (RT33 and EYp1) (A) or peptides without a CX3C motif (RT34, Δ+1, Δ−1)(B).
(§2) Flow cytometry results following treatment (d−1) of mice with PBS, RT33, RT34, Δ+1, Δ−1 and EYp1 peptides (100 μm). BAL cells were stained with antibodies against B220^+ (A, D, G), CD3^+ (B, E, H) and CD11b^+ (C, F, I) cells. Data is expressed as the total BAL cells/lung±SEM at days 3, 5, 7 and 14 post-infection. A representative experiment from 3 independent experiments is shown.
as §2, with “NK (DX5^+)” for “B220^+”, “(A, C, E) and PMN (RB6-8C5^+) cells (B,” for “(A,”, “F).” for “G), CD3^+ (B, E, H) and CD11b^+ (C, F, I) cells.”
as §1
Mice were anesthetized with Avertin and exsanguinated by severing the right caudal artery. Bronchoalveolar leukocyte (BAL) cells were harvested by lung lavage with PBS containing 1% bovine serum albumin (BSA, Sigma). The procedure used for extracellular staining of BAL cells was modified for microculture staining as described (55,57). Briefly, BAL cells were washed in Dulbecco's PBS (GIBCO) containing 1% bovine serum albumin (Sigma), blocked with 10% normal mouse sera diluted in PBS containing 1% bovine serum albumin, and then stained (4° C., 30 min) with an appropriate dilution of FITC-conjugated or PE-conjugated anti-CD3ε (145-2C11), anti-CD45R/B220 (RA3-6B2), anti-CD8 (Ly-2), anti-neutrophil (PMN) (RB6-8C5), anti-CD11b (M1/70) and isotype antibody controls (all from Pharmingen, San Diego, Calif.).

[4] = day 3 pi, peptide 24 hours prior to RSV infection

Sequence	Total IC cytokine Expressing CD3^+ BAL cells (×10^3) ± SEM: IFNγ ([2]; day 3 pi)	Total IC cytokine Expressing CD3^+ BAL cells (×10^3) ± SEM: IL-4 ([2]; day 3 pi)	Total IC cytokine Expressing CD3^+ BAL cells (×10^3) ± SEM: IL-5 ([2]; day 3 pi)	Total IC cytokine Expressing CD3^+ BAL cells (×10^3) ± SEM: IL-6 ([2]; day 3 pi)	Total IC cytokine Expressing CD3^+ BAL cells (×10^3) ± SEM: TNFα ([2]; day 3 pi)	Total IC cytokine Expressing CD3^+ BAL cells (×10^3) ± SEM: IL-2 [2, 4]	Total IC cytokine Expressing CD3^+ BAL cells (×10^3) ± SEM: IFNγ ([2]; day 5 pi)	Total IC cytokine Expressing CD3^+ BAL cells (×10^3) ± SEM: IL-2 ([2]; day 5 pi)	Total IC cytokine Expressing CD3^+ BAL cells (×10^3) ± SEM: IL-4 ([2]; day 5 pi)	Total IC cytokine Expressing CD3^+ BAL cells (×10^3) ± SEM: IL-5 ([2]; day 5 pi)	Total IC cytokine Expressing CD3^+ BAL cells (×10^3) ± SEM: IL-6 ([2]; day 5 pi)	Total IC cytokine Expressing CD3^+ BAL cells (×10^3) ± SEM: TNFα ([2]; day 5 pi)	Total IC cytokine Expressing CD3^+ BAL cells (×10^3) ± SEM: IFNγ ([2]; day 7 pi)	Total IC cytokine Expressing CD3^+ BAL cells (×10^3) ± SEM: IL-2 ([2]; day 7 pi)	Total IC cytokine Expressing CD3^+ BAL cells (×10^3) ± SEM: IL-4 ([2]; day 7 pi)	Total IC cytokine Expressing CD3^+ BAL cells (×10^3) ± SEM: IL-5 ([2]; day 7 pi)	Total IC cytokine Expressing CD3^+ BAL cells (×10^3) ± SEM: IL-6 ([2]; day 7 pi)	Total IC cytokine Expressing CD3^+ BAL cells (×10^3) ± SEM: TNFα ([2]; day 7 pi)	Total IC cytokine Expressing CD3^+ BAL cells (×10^3) ± SEM: IFNγ ([2]; day 14 pi)	Total IC cytokine Expressing CD3^+ BAL cells (×10^3) ± SEM: IL-2 ([2]; day 14 pi)	also measured
NKKPGKKTTTKP [RT34]	43 ± 9.4 ×10^3	43 ± 9.2 ×10^3	28 ± 8.0 ×10^3	47 ± 10 ×10^3	57 ± 12 ×10^3	40 ± 8.5 ×10^3	18 ± 2.6 ×10^3	19 ± 2.8 ×10^3	15 ± 2.2 ×10^3	24 ± 3.5 ×10^3	30 ± 4.4 ×10^3	27 ± 3.9 ×10^3	10 ± 3.5 ×10^3	7.7 ± 2.6 ×10^3	11 ± 3.6 ×10^3	8.7 ± 2.9 ×10^3	8.9 ± 3.0 ×10^3	31 ± 5.0 ×10^3	9.7 ± 1.5 ×10^3	5.4 ± 1.9 ×10^3	effect of adding peptide to heparin on plaque reduction [1]: no effect above heparin treatment alone; Total IC cytokine Expressing CD3^+ BAL cells (×10^3) ± SEM: IL-4 ([2]; day 14 pi): 8.2 ± 1.3 ×10^3; Total IC cytokine Expressing CD3^+ BAL cells (×10^3) ± SEM: IL-5 ([2]; day 14 pi): 10 ± 1.7 ×10^3; Total IC cytokine Expressing CD3^+ BAL cells (×10^3) ± SEM: IL-6 ([2]; day 14 pi): 11 ± 1.7 ×10^3; Total IC cytokine Expressing CD3^+ BAL cells (×10^3) ± SEM: TNFα ([2]; day 14 pi): 10 ± 1.6 ×10^3
TCWACKRIPNK (TCWAIACKRIPNK) [Δ − 1]	47 ± 15 ×10^3	47 ± 15 ×10^3	49 ± 16 ×10^3	51 ± 17 ×10^3	55 ± 17 ×10^3	46 ± 15 ×10^3	10 ± 1.6 ×10^3	11 ± 1.7 ×10^3	13 ± 1.9 ×10^3	15 ± 2.2 ×10^3	13 ± 2.0 ×10^3	18 ± 2.7 ×10^3	4.7 ± 0.7 ×10^3	3.5 ± 0.5 ×10^3	2.8 ± 0.4 ×10^3	4.2 ± 0.6 ×10^3	6.3 ± 1.0 ×10^3	12 ± 0.7 ×10^3	10 ± 1.2 ×10^3	8.7 ± 1.0 ×10^3	effect of adding peptide to heparin on plaque reduction [1]: no effect above heparin treatment alone; Total IC cytokine Expressing CD3^+ BAL cells (×10^3) ± SEM: IL-4 ([2]; day 14 pi): 12 ± 1.4 ×10^3; Total IC cytokine Expressing CD3^+ BAL cells (×10^3) ± SEM: IL-5 ([2]; day 14 pi): 14 ± 1.7 ×10^3; Total IC cytokine Expressing CD3^+ BAL cells (×10^3) ± SEM: IL-6 ([2]; day 14 pi): 13 ± 1.6 ×10^3; Total IC cytokine Expressing CD3^+ BAL cells (×10^3) ± SEM: TNFα ([2]; day 14 pi): 11 ± 1.4 ×10^3
TCWAIACKRIPNK [Δ + 1]	18 ± 2.2 ×10^3	18 ± 2.3 ×10^3	23 ± 2.9 ×10^3	21 ± 2.8 ×10^3	19 ± 2.5 ×10^3	15 ± 2.0 ×10^3	17 ± 5.3 ×10^3	16 ± 5.1 ×10^3	20 ± 6.2 ×10^3	23 ± 7.2 ×10^3	21 ± 6.5 ×10^3	21 ± 6.8 ×10^3	5.6 ± 1.6 ×10^3	7.5 ± 2.2 ×10^3	5.8 ± 1.7 ×10^3	9.9 ± 2.9 ×10^3	11 ± 3.3 ×10^3	15 ± 2.9 ×10^3	11 ± 3.5 ×10^3	10 ± 3.2 ×10^3	effect of adding peptide to heparin on plaque reduction [1]: no effect above heparin treatment alone; Total IC cytokine Expressing CD3^+ BAL cells (×10^3) ± SEM: IL-4 ([2]; day 14 pi): 14 ± 4.2 ×10^3; Total IC cytokine Expressing CD3^+ BAL cells (×10^3) ± SEM: IL-5 ([2]; day 14 pi): 16 ± 4.9 ×10^3; Total IC cytokine Expressing CD3^+ BAL cells (×10^3) ± SEM: IL-6 ([2]; day 14 pi): 12 ± 3.7 ×10^3; Total IC cytokine Expressing CD3^+ BAL cells (×10^3) ± SEM: TNFα ([2]; day 14 pi): 15 ± 4.7 ×10^3; total BAL numbers compared to mice treated with RT34, Δ−1 or PBS [3]: reduced BAL infiltrate; course of BAL numbers [3]: increased
TCWAICKRIPNK [RT33]	24 ± 5.6 ×10^3	24 ± 6.0 ×10^3	22 ± 5.6 ×10^3	27 ± 6.8 ×10^3	28 ± 7.0 ×10^3	26 ± 6.5^c ×10^3	8.0 ± 1.0 ×10^3	9.0 ± 1.1 ×10^3	11 ± 1.3 ×10^3	12 ± 1.5 ×10^3	9.0 ± 1.2 ×10^3	9.0 ± 1.1 ×10^3	3.6 ± 0.5 ×10^3	2.4 ± 0.3 ×10^3	2.3 ± 0.3 ×10^3	5.2 ± 0.7 ×10^3	5.8 ± 0.8 ×10^3	13 ± 0.8 ×10^3	6.5 ± 2.1 ×10^3	3.0 ± 1.0 ×10^3	Total IC cytokine Expressing CD3^+ BAL cells (×10^3) ± SEM: IL-4 ([2]; day 14 pi): 8.2 ± 2.7 ×10^3; Total IC cytokine Expressing CD3^+ BAL cells (×10^3) ± SEM: IL-5 ([2]; day 14 pi): 5.3 ± 1.7 ×10^3; Total IC cytokine Expressing CD3^+ BAL cells (×10^3) ± SEM: IL-6 ([2]; day 14 pi): 4.7 ± 1.5 ×10^3; Total IC cytokine Expressing CD3^+ BAL cells (×10^3) ± SEM: TNFα ([2]; day 14 pi): 8.7 ± 2.6 ×10^3; total BAL numbers compared to mice treated with RT34, Δ−1 or PBS [3]: reduced BAL numbers; numbers of BAL cell types (B220+, CD3+, CD11b+, NK, PMN) ([3]; days 3, 5, 7 and 14 pi): reduced numbers of BAL cell types; course of BAL numbers [3]: declined
